In the SangsterLogP compilation one finds logP data, which are given here for 45 compounds.

Structures are written as SMILES.

A word on the logP: it is a log measure of how a compound divides between an organic and an aqueous phase. Read a high logP as a more lipophilic compound. As to `COC(=O)NC1=NCC(c2ccccc2)N1` (stereo not given), the logP was determined as 1.55. The value for `COC(=O)NC1=NCC(c2ccc(C(=O)OC)cc2)N1C` (stereo not given) was 1.38; that for `COC(=O)NC1=NCC(c2ccccc2F)N1C` (stereo not given) was 1.53.

`COC(=O)NC1=NCC(c2ccc(F)cc2)N1` (stereo not given) registered a logP of 1.49. As for `CN(C)CCOc1cccc2ccccc12`, the figure is 2.12; as for `COC(=O)NC1=NCC(c2ccc(C(C)C)cc2)N1` (stereo not given), 2.6; as for `CCOC(=O)NC1=NCC(c2cccc(C)c2C)N1C` (stereo not given), 2.57. The compound `COC(=O)NC1=NCC(c2cccc(Cl)c2)N1` (stereo not given) returned a logP of 1.9.

Regarding `CCc1cc2n(c1C(=O)c1ccc(F)cc1)CCC2C(=O)O` (stereo not given), the logP was 3.63.

Consider `COC(=O)NC1=NCC(c2ccccc2Br)N1` (stereo not given), for which the logP came to 1.85. The value for `NCCCCOc1cccc2ccccc12` was 1.25. The value for `CN(C)CCCCOc1cccc2ccccc12` was 2.05; that for `O=c1c2ncn(COCCO)c2nc2[nH]c(-c3ccc4ccccc4c3)cn12` was 2.09.

In turn, `CCOC(=O)NC1=NCC(c2cccc(Cl)c2)N1C` (stereo not given) had a logP of 2.45. In the case of `CCc1cc2n(c1C(=O)c1ccccc1)CCC2C(=O)O` (stereo not given), the logP was found to be 3.31. `NCCCCCCOc1cccc2ccccc12` showed a logP of 2.06. As for `COC(=O)NC1=NCC(c2ccc(C(F)(F)F)cc2)N1` (stereo not given), the figure is 2.25; as for `Cc1ccc(C(=O)c2c(C)cc3n2CCC3C(=O)O)cc1` (stereo not given), 3.33; as for `NCCCCCOc1cccc2ccccc12`, 1.59. As for `CCOC(=O)NC1=NCC(c2ccc(CO)cc2)N1C` (stereo not given), the figure is 0.84; as for `NCCCOc1cccc2ccccc12`, 1.04; as for `Cc1cc2n(c1C(=O)c1ccc(Cl)cc1)CCC2C(=O)O` (stereo not given), 3.6.

As to `COC(=O)NC1=NCC(c2ccc(CO)cc2)N1C` (stereo not given), the logP turned out to be 0.28.

In turn, `CN(C)CCCOc1cccc2ccccc12` returned a logP of 1.99. Regarding `COC(=O)NC1=NCC(c2cccc(F)c2)N1` (stereo not given), the logP came to 1.41.

In turn, `COC(=O)NC1=NCC(c2cc(Br)ccc2Br)N1C` (stereo not given) yielded a logP of 2.77. As for `COC(=O)NC1=NCC(c2cccc(C)c2)N1C` (stereo not given), the figure is 1.85; as for `COC(=O)NC1=NCC(c2ccc(Cl)cc2)N1C` (stereo not given), 2.17; as for `COC(=O)NC1=NCC(c2cccc(OC)c2)N1C` (stereo not given), 1.39. For the compound `COc1ccc(C(=O)c2c(C)cc3n2CCC3C(=O)O)cc1` (stereo not given), the logP came to 2.91. `NCCOc1cccc2ccccc12` came in with a logP of 1.15. For `COC(=O)NC1=NCC(c2ccc3c(c2)OCO3)N1` (stereo not given), the log partition coefficient (logP) stood at 1.21.

`CCOC(=O)NC1=NCC(c2cccc(F)c2)N1C` (stereo not given) came in with a logP of 1.84. `NCCCCCCCCOc1cccc2ccccc12` returned a logP of 3.14. As for `COC(=O)NC1=NCC(c2ccccc2SC)N1C` (stereo not given), the logP worked out at 2.08. The value for `COC(=O)NC1=NCC(c2cccc(Cl)c2)N1C` (stereo not given) was 2.1.

In turn, `COC(=O)NC1=NCC(c2ccc(C=O)cc2)N1C` (stereo not given) came in with a logP of 0.74. The value for `Cc1cc2n(c1C(=O)c1ccccc1)CCC2C(=O)O` (stereo not given) was 2.85. In turn, `COC(=O)NC1=NCC(c2ccc3ccccc3c2)N1` (stereo not given) showed a log partition coefficient (logP) of 2.54. As for `CCOC(=O)NC1=NCC(c2ccc(F)cc2)N1C` (stereo not given), the logP was 1.9. Regarding `COC(=O)NC1=NCC(c2ccccc2)N1C` (stereo not given), the logP came out at 1.57.

As to `CCOC(=O)NC1=NCC(c2ccccc2)N1C` (stereo not given), the logP came out at 1.9. As for `CCOC(=O)NC1=NCC(c2ccccc2Cl)N1C` (stereo not given), the figure is 2.4; as for `COC(=O)NC1=NCC(c2ccccc2Cl)N1C` (stereo not given), 2.08; as for `COC(=O)NC1=NCC(c2ccccc2C)N1C` (stereo not given), 1.85.
